Legend:
[1] = target: AccD5 (carboxyltransferase beta subunit of ACCase 5) (Mycobacterium tuberculosis, UniProt P9WQH7); assay type: biochemical
[2] = target: T1, AccD6 (carboxyltransferase beta subunit of ACCase 6) (Mycobacterium tuberculosis, UniProt P9WQH5); assay type: biochemical
T1 sequence (P9WQH5 1-473): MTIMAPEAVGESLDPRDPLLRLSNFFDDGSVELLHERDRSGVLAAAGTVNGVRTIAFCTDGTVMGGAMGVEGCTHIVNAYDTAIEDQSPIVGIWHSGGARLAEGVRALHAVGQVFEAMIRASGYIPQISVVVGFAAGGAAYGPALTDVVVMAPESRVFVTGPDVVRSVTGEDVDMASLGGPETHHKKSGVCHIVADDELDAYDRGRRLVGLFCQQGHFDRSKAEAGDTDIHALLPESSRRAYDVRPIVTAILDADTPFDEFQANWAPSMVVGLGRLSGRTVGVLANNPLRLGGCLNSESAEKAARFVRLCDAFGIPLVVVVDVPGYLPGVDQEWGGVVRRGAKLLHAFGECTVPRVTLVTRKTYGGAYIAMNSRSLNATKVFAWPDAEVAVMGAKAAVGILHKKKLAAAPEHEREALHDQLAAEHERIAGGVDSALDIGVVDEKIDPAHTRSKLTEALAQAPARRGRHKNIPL
T1 sequence (P9WPQ3 1-654 partner): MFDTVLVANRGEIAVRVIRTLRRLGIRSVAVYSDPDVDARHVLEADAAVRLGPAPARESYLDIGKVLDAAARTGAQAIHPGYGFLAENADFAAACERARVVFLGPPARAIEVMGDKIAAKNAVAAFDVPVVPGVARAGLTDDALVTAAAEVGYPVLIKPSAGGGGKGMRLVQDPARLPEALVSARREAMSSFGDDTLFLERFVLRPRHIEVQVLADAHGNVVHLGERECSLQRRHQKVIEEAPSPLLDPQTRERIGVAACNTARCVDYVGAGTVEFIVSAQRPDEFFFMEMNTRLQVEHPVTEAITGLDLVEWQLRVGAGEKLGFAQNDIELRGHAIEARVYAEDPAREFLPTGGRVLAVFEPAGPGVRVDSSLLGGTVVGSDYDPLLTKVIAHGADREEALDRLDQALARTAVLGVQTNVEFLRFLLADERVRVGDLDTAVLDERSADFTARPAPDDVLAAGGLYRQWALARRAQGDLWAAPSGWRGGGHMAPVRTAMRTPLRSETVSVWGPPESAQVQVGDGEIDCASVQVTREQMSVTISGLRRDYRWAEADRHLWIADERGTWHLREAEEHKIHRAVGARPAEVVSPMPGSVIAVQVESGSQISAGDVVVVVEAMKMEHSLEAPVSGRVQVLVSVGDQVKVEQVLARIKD

Sequence of AccD5 (carboxyltransferase beta subunit of ACCase 5) (P96890 2-600): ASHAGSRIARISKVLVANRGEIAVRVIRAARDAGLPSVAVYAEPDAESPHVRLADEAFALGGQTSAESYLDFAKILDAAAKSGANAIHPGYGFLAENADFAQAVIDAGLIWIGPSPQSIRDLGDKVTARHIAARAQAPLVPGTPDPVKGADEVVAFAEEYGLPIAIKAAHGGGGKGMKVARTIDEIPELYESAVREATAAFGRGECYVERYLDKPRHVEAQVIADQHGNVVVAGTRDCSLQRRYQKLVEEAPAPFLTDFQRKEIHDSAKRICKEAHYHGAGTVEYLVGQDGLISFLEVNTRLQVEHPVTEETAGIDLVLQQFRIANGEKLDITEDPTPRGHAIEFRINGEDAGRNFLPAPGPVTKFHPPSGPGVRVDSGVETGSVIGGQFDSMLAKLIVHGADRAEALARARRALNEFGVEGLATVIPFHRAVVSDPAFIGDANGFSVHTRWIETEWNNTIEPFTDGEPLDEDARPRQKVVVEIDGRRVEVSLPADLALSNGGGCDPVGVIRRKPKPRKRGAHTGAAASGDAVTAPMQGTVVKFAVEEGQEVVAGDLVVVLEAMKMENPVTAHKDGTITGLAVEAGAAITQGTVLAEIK
Sequence of AccD5 (carboxyltransferase beta subunit of ACCase 5) (P96886 whole entry, further chain): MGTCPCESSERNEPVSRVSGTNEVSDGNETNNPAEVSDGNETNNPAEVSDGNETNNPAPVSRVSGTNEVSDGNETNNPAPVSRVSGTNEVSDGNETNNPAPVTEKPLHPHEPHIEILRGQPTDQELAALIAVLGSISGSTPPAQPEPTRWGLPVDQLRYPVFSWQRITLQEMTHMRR
Sequence of AccD5 (carboxyltransferase beta subunit of ACCase 5) (P9WQH7 whole entry): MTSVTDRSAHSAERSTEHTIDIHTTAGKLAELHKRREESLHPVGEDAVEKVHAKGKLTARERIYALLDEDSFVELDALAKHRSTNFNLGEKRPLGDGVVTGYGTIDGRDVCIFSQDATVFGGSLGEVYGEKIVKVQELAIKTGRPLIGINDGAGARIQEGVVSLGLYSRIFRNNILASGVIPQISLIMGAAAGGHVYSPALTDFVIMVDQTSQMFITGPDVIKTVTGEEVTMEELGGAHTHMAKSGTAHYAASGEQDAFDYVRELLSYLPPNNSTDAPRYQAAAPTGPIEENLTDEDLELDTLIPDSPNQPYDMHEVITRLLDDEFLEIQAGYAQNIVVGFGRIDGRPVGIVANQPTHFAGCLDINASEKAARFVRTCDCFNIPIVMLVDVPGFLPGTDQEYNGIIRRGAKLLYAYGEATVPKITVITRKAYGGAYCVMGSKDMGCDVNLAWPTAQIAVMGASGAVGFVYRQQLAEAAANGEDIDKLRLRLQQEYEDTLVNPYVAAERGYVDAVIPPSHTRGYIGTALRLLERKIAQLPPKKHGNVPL

`Oc1c(Cl)cc(C(c2cc(Cl)c(O)c(Cl)c2)C(c2cc(Cl)c(O)c(Cl)c2)c2cc(Cl)c(O)c(Cl)c2)cc1Cl` [NCI-172033] gave an IC50 [1] of 78 µM and an IC50 [2] of roughly 8 µM.

Source: article PMC2865140 (Microbiology (Reading, England), 2009)
